Test results as given in patent US20050026987A1, “CBI analogues of the duocarmycins and CC-1065” (The Scripps Research Institute, priority 2003, published 2005).
pIC50: −log10 of the molar value. Values joined by “and” are separate entries in the source; they are usually repeats but may differ in a detail not shown here. Identical values can stand only once. Like-named read-outs stand apart in the source and are kept apart here.

Columns and labels:
L1210 [1] = test: L1210 cytotoxic potency; conditions: for fold less potent than C5 acyl derivative 54: 52: versus the C5 acyl derivatives, 62: versus 54; for distinction NO2 versus OMe substituent (more potent than corresponding methoxy derivative): C5, C6, C7 nitro vs corresponding methoxy
w794 DNA = test: DNA alkylation selectivity, efficiency and rate in w794 DNA; format: biochemical
L1210 [2] = conditions: cited from earlier work
[3] = relative to CBI-TMI, IC50=30 pM
[4] = relative to (+)-CBI-indole (R=H)
[5] = read-out: IC50 (cytotoxic potency), L1210
[6] = Mus musculus, L1210, read-out: IC50 (cytotoxic potency)

Compound: O=C(C1Oc2ccc3[nH]ccc3c2O1)N1C[C@@H](CCl)c2c1cc(O)c1ccccc21 (stereo partly drawn) [compound 74, 3-([1,3]Dioxolo[e]indole-2-carbonyl)-1-(S)-(chloromethyl)-5-hydroxy-1,2-dihydro-3H-benz[e]indole]
- relative cytotoxic potency in words (L1210 [1]): much more active than the corresponding unconstrained 4,5 dimethoxy derivative 10

Compound: CNC(=O)c1ccc2[nH]c(C(=O)N3C[C@@H](CCl)c4c3cc(O)c3ccccc43)cc2c1 [compound 62, 3-(5-Methylcarbamoylindole-2-carbonyl)-1-(S)-(chloromethyl)-5-hydroxy-1,2-dihydro-3H-benz[e]indole]
- fold less potent than C5 acyl derivative 54 (L1210 [1]): 5 fold
- fold more potent than (+)-CBI-TMI (L1210 [1]; [3]): 3 fold

Compound: O=C1C=C2N(C(=O)c3cc4cc5c(cc4[nH]3)OCO5)C[C@H]3C[C@@]23c2ccccc21 [compound 75, N^2-[([1,3]Dioxolo[f]indole-2-yl)carbonyl]-(8bR,9aS)-1,2,9,9a-tetrahydrocyclopropa[c]-benz[e]indol-4-one]
- relative cytotoxic potency in words (L1210 [1]): substantially less potent than the corresponding unconstrained C5,6 dimethoxy derivative 11

Compound: O=C(c1cc2ccc([N+](=O)[O-])cc2[nH]1)N1C[C@@H](CCl)c2c1cc(O)c1ccccc21 [compound 50, 3-(6-Nitroindole-2-carbonyl)-1-(S)-(chloromethyl)-5-hydroxy-1,2-dihydro-3H-benz[e]indole]
- distinction NO2 versus OMe substituent (more potent than corresponding methoxy derivative) (L1210 [1]): 5 ×

Compound: CCC(=O)c1ccc2[nH]c(C(=O)N3CC4CC45C3=CC(=O)c3ccccc35)cc2c1 [compound 56, N^2-[(5-Propionylindole-2-yl)carbonyl]-(8bR,9aS)-1,2,9,9a-tetrahydrocyclopropa[c]benz[e]-indol-4-one]
- increase in cytotoxic potency over (+)-CBI-indole (5) (L1210 [1]; [4]): 1000 fold

Compound: O=C1CCc2c1ccc1[nH]c(C(=O)N3C[C@@H](CCl)c4c3cc(O)c3ccccc43)cc21 [compound 72, 3-(6-Oxo-cyclopenten[e]indole-2-carbonyl)-1-(S)-(chloromethyl)-5-hydroxy-1,2-dihydro-3H-benz[e]indole]
- relative cytotoxic potency in words (L1210 [1]): matched the potency of the C5 substituted methyl and ethyl ketones 54 and 56

Compound: CCOc1ccc2[nH]c(C(=O)N3CC4CC45C3=CC(=O)c3ccccc35)cc2c1 [compound 15, N^2-[(5-Ethoxyindole-2-yl)carbonyl]-(8bR,9aS)-1,2,9,9a-tetrahydrocyclopropa[c]benz[e]indol-4-one]
- additional increase in cytotoxic potency versus C5 methoxy (L1210 [1]; C5 alkyl ethers relative to C5 OMe): 5 fold
- pIC50 (L1210 [1]; [5]): 11.00

Compound: COc1ccc2[nH]c(C(=O)N3CC4CC45C3=CC(=O)c3ccccc35)cc2c1OC [compound 10, N^2-[(4,5-Dimethoxyindole-2-yl)carbonyl]-(8bR,9aS)-1,2,9,9a-tetrahydrocyclopropa[c]benz[e]indol-4-one]
- relative cytotoxic potency in words (L1210 [1]): much less active

Compound: COc1c(O)c2c(c3cc(C(=O)N4CCc5c4c(O)c(OC)c4[nH]c(C(=O)N6CC7CC78C6=CC(=O)c6[nH]cc(C)c68)cc54)[nH]c13)CCN2C(N)=O (stereo not drawn) [CC-1065]
- pIC50 (L1210 [1]; [6]): 10.70

Compound: Cc1ccc2[nH]c(C(=O)N3C[C@H]4C[C@@]45C3=CC(=O)c3ccccc35)cc2c1 [compound 24, N^2-[(5-Methylindole-2-yl)carbonyl]-(8bR,9aS)-1,2,9,9a-tetrahydrocyclopropa[c]benz[e]in-dol-4-one]
- pIC50 (L1210 [1]; [5]): 8.70

Compound: CSc1ccc2[nH]c(C(=O)N3CC4CC45C3=CC(=O)c3ccccc35)cc2c1 [compound 21, N^2-[(5-Thiomethylindole-2-yl)carbonyl]-(8bR,9aS)-1,2,9,9a-tetrahydrocyclopropa[c]benz-[e]indol-4-one]
- pIC50 (L1210 [1]; [5]): 10.30

Compound: CC(=O)c1ccc2[nH]c(C(=O)N3C[C@H]4C[C@@]45C3=CC(=O)c3ccccc35)cc2c1 [compound 54, N^2-[(5-Acetylindole-2-yl)carbonyl]-(8bR,9aS)-1,2,9,9a-tetrahydrocyclopropa[c]benz[e]in-dol-4-one]
- DNA alkylation selectivity (w794 DNA): no alterations in the inherent DNA alkylation selectivity
- rate and efficiency of DNA alkylation (w794 DNA): enhanced rate and efficiency of DNA alkylation
- increase in cytotoxic potency over (+)-CBI-indole (5) (L1210 [1]; [4]): 1000 fold

Compound: O=C1C=C2N(C(=O)c3cc4cc5ccccc5cc4[nH]3)C[C@@H]3C[C@]23c2ccccc21 [(+)-78, N^2-[(Benz[f]indole-2-yl)carbonyl]-1,2,9,9a-tetrahydrocyclopropa[c]benz[e]indol-4-one]
- increase in cytotoxic potency over (+)-CBI-indole (5) (L1210 [1]; [4]): 5 fold

Compound: N#Cc1ccc2[nH]c(C(=O)N3CC4CC45C3=CC(=O)c3ccccc35)cc2c1 [compound 31, N^2-[(5-Cyanoindole-2-yl)carbonyl]-(8bR,9aS)-1,2,9,9a-tetrahydrocyclopropa[c]benz[e]in-dol-4-one]
- pIC50 (L1210 [1]; [5]): 10.52

Compound: COC(=O)c1cc2c([nH]1)C(=O)C=C1N(C(=O)c3cc4cc(OC)c(OC)c(OC)c4[nH]3)CC3CC123 (stereo not drawn) [duocarmycin SA, reference compound]
- effect of 5,6,7-trimethoxy substitution / removal of TMI methoxy substituents on cytotoxic potency (L1210 [2]; literature comparison series): 6.5-10 fold
- pIC50 (L1210 [1]; [6]): 11.00 to 11.22

Compound: O=C(c1cc2cc([N+](=O)[O-])ccc2[nH]1)N1C[C@@H](CCl)c2c1cc(O)c1ccccc21 [compound 49, 3-(5-Nitroindole-2-carbonyl)-1-(S)-(chloromethyl)-5-hydroxy-1,2-dihydro-3H-benz[e]indole]
- distinction NO2 versus OMe substituent (more potent than corresponding methoxy derivative) (L1210 [1]): 2.5 ×
- pIC50 (L1210 [1]; [6]): 10.70

Compound: COc1ccc2[nH]c(C(=O)N3C[C@H]4C[C@@]45C3=CC(=O)c3ccccc35)cc2c1 [compound 7, N^2-[(5-Methoxyindole-2-yl)carbonyl]-(8bR,9aS)-1,2,9,9a-tetrahydrocyclopropa[c]benz[e]indol-4-one]
- pIC50 (L1210 [1]; [5]): 10.30
- decrease in cytotoxic potency compared with CBI-TMI (4) (L1210 [1]; [3]): 1.6 fold

Compound: O=C1C=C2N(C(=O)c3cc4c(ccc5ccccc54)[nH]3)C[C@H]3C[C@@]23c2ccccc21 [(+)-77, N^2-[(Benz[e]indole-2-yl)carbonyl]-1,2,9,9a-tetrahydrocyclopropa[c]benz[e]indol-4-one]
- reduction in potency relative to the fused pyrrole 69 or the fused furan 71 (L1210 [1]): 6-8 fold
- reduction in cytotoxic potency compared to (+)-CBI-indole (L1210 [1]; [4]): 2 fold

Compound: COc1cc2cc(C(=O)N3CC4CC45C3=CC(=O)c3ccccc35)[nH]c2c(OC)c1OC (stereo not drawn) [CBI-TMI, reference compound]
- pIC50 (L1210 [1]; [5]): 10.52
- increase in cytotoxic potency over (+)-CBI-indole (5) (L1210 [1]; [4]): ~100 fold and 90 fold

Compound: CCCC(=O)c1ccc2[nH]c(C(=O)N3C[C@H]4C[C@@]45C3=CC(=O)c3ccccc35)cc2c1 [compound 57, N^2-[(5-Butyrylindole-2-yl)carbonyl]-(8bR,9aS)-1,2,9,9a-tetrahydrocyclopropa[c]benz[e]indol-4-one]
- pIC50 (L1210 [1]; [5]): 10.70

Compound: CS(=O)(=O)c1ccc2[nH]c(C(=O)N3C[C@@H](CCl)c4c3cc(O)c3ccccc43)cc2c1 [compound 64, 3-(5-Methylsulfonylindole-2-carbonyl)-1-(S)-(chloromethyl)-5-hydroxy-1,2-dihydro-3H-benz[e]indole]
- pIC50 (L1210 [1]; [6]): 11.52
- increase in cytotoxic potency over (+)-CBI-indole (5) (L1210 [1]; [4]): 1000 fold

Compound: COc1ccc2cc(C(=O)N3CC4CC45C3=CC(=O)c3ccccc35)[nH]c2c1OC [compound 12, N^2-[(6,7-Dimethoxyindole-2-yl)carbonyl]-(8bR,9aS)-1,2,9,9a-tetrahydrocyclopropa[c]benz[e]indol-4-one]
- decrease in cytotoxic potency compared with CBI-TMI (4) (L1210 [1]; [3]): 6.6 fold

Compound: CCc1ccc2[nH]c(C(=O)N3CC4CC45C3=CC(=O)c3ccccc35)cc2c1 [compound 25, N^2-[(5-Ethylindole-2-yl)carbonyl]-(8bR,9aS)-1,2,9,9a-tetrahydrocyclopropa[c]benz[e]indol-4-one]
- pIC50 (L1210 [1]; [5]): 8.70

Compound: O=Cc1ccc2[nH]c(C(=O)N3C[C@@H](CCl)c4c3cc(O)c3ccccc43)cc2c1 [compound 52, 3-(5-Formylindole-2-carbonyl)-1-(S)-(chloromethyl)-5-hydroxy-1,2-dihydro-3H-benz[e]indole]
- fold less potent than C5 acyl derivative 54 (L1210 [1]): 50 fold

Compound: COc1cccc2[nH]c(C(=O)N3C[C@H]4C[C@@]45C3=CC(=O)c3ccccc35)cc12 [compound 6, N^2-[(4-Methoxyindole-2-yl)carbonyl]-(8bR,9aS)-1,2,9,9a-tetrahydrocyclopropa[c]benz[e]indol-4-one]
- increase in cytotoxic potency over (+)-CBI-indole (5) (L1210 [1]; [4]): 4 fold
- decrease in cytotoxic potency compared with CBI-TMI (4) (L1210 [1]; [3]): 17 fold and 16-17 fold

Compound: O=C1C=C2N(C(=O)c3cc4c5c(ccc4[nH]3)OCC5)CC3CC23c2ccccc21 [compound 70, N^2-[(1,2-Dihydropyrrolo[3,2-e]benzofuran-7-yl)carbonyl]-(8bR,9aS)-1,2,9,9a-tetrahydro-cyclopropa[c]benz[e]indol-4-one]
- relative cytotoxic potency in words (L1210 [1]): slightly more potent than 7

Compound: O=C(c1cc2cccc([N+](=O)[O-])c2[nH]1)N1C[C@@H](CCl)c2c1cc(O)c1ccccc21 [compound 51, 3-(7-Nitroindole-2-carbonyl)-1-(S)-(chloromethyl)-5-hydroxy-1,2-dihydro-3H-benz[e]indole]
- distinction NO2 versus OMe substituent (more potent than corresponding methoxy derivative) (L1210 [1]): 1.5 ×

Compound: NC(=O)N1CCc2c1ccc1[nH]c(C(=O)N3C[C@H]4C[C@@]45C3=CC(=O)c3ccccc35)cc21 [(+)-CBI-CDPI1]
- pIC50 (L1210 [2]; disclosed in prior studies (J. Org. Chem. 1996, 61, 4894), read-out: IC50 (cytotoxic potency), prior studies): 11.30

Compound: CCS(=O)(=O)c1ccc2[nH]c(C(=O)N3C[C@@H](CCl)c4c3cc(O)c3ccccc43)cc2c1 [compound 65, 3-(5-Ethylsulfonylindole-2-carbonyl)-1-(S)-(chloromethyl)-5-hydroxy-1,2-dihydro-3H-benz[e]indole]
- pIC50 (L1210 [1]; [6]): 10.40

Compound: O=C1C=C2N(C(=O)c3cc4ccccc4[nH]3)CC3CC23c2ccccc21 [compound 5, N^2-[(Indole-2-yl)carbonyl]-(8bR,9aS)-1,2,9,9a-tetrahydrocyclopropa[c]benz[e]indol-4-one, reference compound]
- pIC50 (L1210 [1]; [5]): 10.30

Compound: CCSc1ccc2[nH]c(C(=O)N3CC4CC45C3=CC(=O)c3ccccc35)cc2c1 [compound 23, N^2-[(5-Thioethylindole-2-yl)carbonyl]-(8bR,9aS)-1,2,9,9a-tetrahydrocyclopropa[c]benz[e]indol-4-one]
- pIC50 (L1210 [1]; [5]): 10.00
